Here are results for one compound from patent US20250099491A1, “PREVENTION OR TREATMENT OF CARDIOVASCULAR DISEASES WITH HIGH PENETRATION PRODRUGS OF ASPIRIN AND OTHER NSAIDS” (Techfields Inc., priority 2022, published 2025).

For the data set the following is noted: following topical spray.

Structures are written as SMILES.

Protocol: Each cohort began with single dose administration of study drug on Day 1 of the cohort's study schedule.
For single dose PK analysis, serial blood samples were collected following the Day 1 dose at the following time points: 0 (pre-dose), 0.25, 0.5, 0.75, 1, 1.5, 2, 2.5, 3, 4, 5, 6, 8, 10, 12, 18, 24, 48, 72, 96 and 120 hours post-dose. For multiple-dose PK analysis, serial blood samples were collected following the last morning dose on Day 12 according to the same schedule used for the single-dose PK analysis. In addition, daily trough PK samples were collected prior to the morning dose on Days 7 through 11.

Consider `CCN(CC)CCOC(=O)c1ccccc1OC(C)=O.Cl` [Compound-1], for which the “converted to salicylic acid” value was no less than 99%.
